Measured values taken from PubChem BioAssay AID463199 (Broad Institute, 2010).
Calls of active or inactive are those of the source.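 Rule for the calls: active = AC50, the dose giving half-maximal effect, exceeds a fixed cutoff for a compound that rescues yeast growth under heat; inactive = the rest, inconclusive results apart.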

Test system: S. cerevisiae Burl-1 ts mutant growth, BacTiter-Glo, 38.5C 24 h
Assay: restored growth of temperature-sensitive Burl-1 yeast – whole organism, S. cerevisiae, Burl-1 ts mutant, luminescence, counter-screen for SUMOylation pathway inhibitor project, dose response (AID 463199)

Cc1nc2c(-c3ccc(F)cc3)cnn2c2c1CCC2
AC50: > 42 µM (inactive)

CC(=O)c1cccc(N2C(=NC(=O)C3CCCCC3)SC3CS(=O)(=O)CC32)c1 (stereo unspecified)
AC50: > 42 µM (inactive)

Cc1ccc(/C=C/C(=O)O)cc1S(=O)(=O)N(CCO)CCO
AC50: > 42 µM (inactive)

COC(=O)c1ccccc1N(C)S(C)(=O)=O
AC50: > 42 µM (inactive)

CC(C)C(=O)Nc1cccc(-c2nc3ncccc3o2)c1
AC50: > 42 µM (inactive)

Cn1nc(C(=O)NCCc2ccc(Cl)cc2)c2c1-c1ccccc1S(=O)(=O)C2
AC50: > 42 µM (inactive)

CCN(CC)c1ccc(C=C2C(=O)OC(c3ccccc3)OC2=O)cc1 (stereo unspecified)
AC50: > 42 µM (inactive)

COc1ccccc1CNCc1cc(OC)c(OC)c(OC)c1
AC50: > 42 µM (inactive)

C[C@@]12C(=O)Nc3cc(Cl)ccc3C(=O)N1[C@H]1c3ccccc3OC[C@@H]1[C@@H]2c1ccccc1
AC50: > 42 µM (inactive)

O=C(O)CN(c1ccccn1)S(=O)(=O)c1ccc(Cl)cc1
AC50: > 42 µM (inactive)

COc1ccccc1N1CCN(C(=O)C2CCN(S(=O)(=O)c3ccc(C)cc3)CC2)CC1
AC50: > 42 µM (inactive)

Cc1cc(Nc2nc3c(c(=O)n(C)c(=O)n3C)n2C)n(-c2ccc(Cl)cc2)n1
AC50: > 42 µM (inactive)

O=C(CN1c2ccccc2Sc2ccccc21)N/N=C/c1ccc(Cl)cc1Cl
AC50: > 21 µM (inactive)

CCN1CCCC1CNC(=O)Cn1cnc2ccc(S(=O)(=O)N3CCC(C)CC3)cc2c1=O (stereo unspecified)
AC50: > 42 µM (inactive)

COc1ccc(C(=O)c2c(C)c3cc(C)ccc3n2CC(O)CN2CCOCC2)cc1 (stereo unspecified)
AC50: > 110 µM (inactive)

CCc1ccccc1NC(=O)N[C@@H](C)C(=O)OC
AC50: > 42 µM (inactive)

O=c1c2ccccc2nc(COc2ccccc2)n1/N=C/c1cn[nH]c1-c1ccccc1
AC50: > 42 µM (inactive)

c1ccc(-c2nc(N3CCOCC3)c3ccccc3n2)nc1
AC50: > 42 µM (inactive)

CCOC(=O)C1CCN(C(=O)c2ccc3c(c2)NC(=O)/C(=C/c2ccccc2)S3)CC1
AC50: > 42 µM (inactive)

O=C(c1ccc(COc2ccccc2Cl)o1)N1N=C(C(F)F)CC1(O)C(F)F (stereo unspecified)
AC50: > 42 µM (inactive)

COc1cc(C(=O)NCCC2=CCCCC2)cc(OC)c1OC
AC50: > 42 µM (inactive)

O=C(Nc1ccncc1Cl)c1ccncc1
AC50: > 42 µM (inactive)

COCC(C)n1c(-c2ccc3c(c2)NC(=O)CO3)csc1=Nc1ccc(OC(F)F)cc1 (stereo unspecified)
AC50: > 42 µM (inactive)

O=S(=O)(O)c1ccc(N=NNc2ccc(Br)cc2)cc1
AC50: > 42 µM (inactive)

Cc1ccc(S(=O)(=O)Nc2n[nH]nc2C(=O)NC2CCCCC2)cc1
AC50: > 42 µM (inactive)

COc1cccc(Nc2nc(C)nc3c2oc2ccccc23)c1
AC50: > 42 µM (inactive)

Cc1ccc(S(=O)(=O)NCc2ccc(C(=O)N3CCN(c4ccccn4)CC3)cc2)cc1
AC50: > 42 µM (inactive)

Cc1nn(C)c(C)c1-c1c(C#N)c(N)nc2c1CCCCCC2
AC50: > 42 µM (inactive)

CN(C)c1ccc(NS(=O)(=O)c2cccc(Cl)c2)cc1
AC50: > 42 µM (inactive)

CCn1c(-c2ccccc2)c(C(=O)CC#N)c2ccccc21
AC50: > 42 µM (inactive)

COc1ccc(-c2nc(NC(=O)CCNC(=O)c3ccco3)sc2C)cc1
AC50: > 42 µM (inactive)

COC(=O)c1ccc(/C=N/NC(=O)C(=O)NCC2CCCO2)cc1 (stereo unspecified)
AC50: > 42 µM (inactive)

COc1ccc(Cl)cc1NC(=O)C1CCCN(c2cc(C)nc3ncnn23)C1 (stereo unspecified)
AC50: > 42 µM (inactive)

O=C(CSc1nc2ncccc2[nH]1)NC1CCCCC1
AC50: > 42 µM (inactive)

COCCN1C(=O)/C(=C/c2cc3c(cc2Br)OCO3)NC1=S
AC50: > 42 µM (inactive)

S=C(c1ccc(N2CCOCC2)cc1)N1CCCCC1
AC50: > 42 µM (inactive)

CCc1nc2ccc(C(=O)N3CCN(CC)CC3)cc2nc1CC
AC50: > 42 µM (inactive)

Cc1ccc2c(C)c(C(=O)N(C)C(C)c3ccncn3)oc2c1C (stereo unspecified)
AC50: > 42 µM (inactive)

COc1ccccc1/C=C/C(=O)NC(=S)N1CCOCC1
AC50: > 42 µM (inactive)

COc1ccccc1CNC(=O)C1CCC(CNS(=O)(=O)c2ccc(C)cc2)CC1 (stereo unspecified)
AC50: > 42 µM (inactive)

CC(=O)Cc1nsc(Nc2cccc(C)c2)n1
AC50: > 42 µM (inactive)

Cc1cccc2nc(COc3ccc4ccccc4c3Br)cn12
AC50: > 42 µM (inactive)

CN1C(=O)/C(=C/c2ccc(OCc3ccccc3F)cc2)NC1=S
AC50: > 42 µM (inactive)

CCOP(=O)(Cc1cc(C(=O)CC)c(C)o1)OCC
AC50: > 42 µM (inactive)

COc1ccccc1N1CCN(CCN2C(=O)C3CCCCN3C2=O)CC1 (stereo unspecified)
AC50: > 42 µM (inactive)

Cc1cc(C)n2c(SCC(C)C)nnc2n1
AC50: > 42 µM (inactive)

S=c1[nH]ccn1-c1cccc(Cl)c1
AC50: > 42 µM (inactive)

CCOC(=O)N1CCN(C(=O)c2ccc(CS(=O)(=O)c3c(Cl)cccc3Cl)o2)CC1
AC50: > 42 µM (inactive)

CCc1ccc(-c2nc(SCC(=O)N3CCOCC3)n[nH]2)cc1
AC50: > 42 µM (inactive)

COc1cccc(OC)c1OCC(O)CN1CCN(c2ccccc2)CC1 (stereo unspecified)
AC50: > 42 µM (inactive)

CCOC(=O)c1c(C)[nH]c(C(=O)COC(=O)c2ccncc2)c1C
AC50: > 42 µM (inactive)

COc1ccccc1/C=C/C(=O)c1c2c(c(C)[nH]c1=O)CCCC2
AC50: > 42 µM (inactive)

N#CC1=C(N)Oc2n[nH]c(CSc3ccccc3)c2C12C(=O)Nc1ccccc12 (stereo unspecified)
AC50: > 42 µM (inactive)

COCc1[nH][nH]c(=O)c1C=Nc1ccc(OC(F)(F)F)cc1
AC50: > 42 µM (inactive)

COc1ccc(C)cc1S(=O)(=O)N1CCC(C(=O)NCCc2ccccc2)CC1
AC50: > 42 µM (inactive)

O=S(=O)(c1cccc(-c2nnco2)c1)N1CCCC1
AC50: > 42 µM (inactive)

CCNC(=S)Nc1ccc(C)c(S(=O)(=O)Nc2ccccc2OC)c1
AC50: > 42 µM (inactive)

COc1ccc(OC)c(NC(=O)CN(C)S(=O)(=O)c2ccc(Cl)cc2)c1
AC50: > 42 µM (inactive)

Oc1c(Br)cc(Cl)cc1C=Nc1ccccc1Br
AC50: > 42 µM (inactive)

CCN1C(=S)N[C@@H](c2cccs2)C(C(=O)OC)=C1C
AC50: > 42 µM (inactive)

CC(C)(C)NC(=O)CC1C(=O)NCCN1Cc1c(F)cccc1Cl (stereo unspecified)
AC50: 37.4 µM

N[C@@H](Cc1ccc(O)c(I)c1)C(=O)O
AC50: > 42 µM (inactive)

C[C@H](NC(=O)OC(C)(C)C)C(=O)NCC1CCC(C(=O)N[C@@H](Cc2ccccc2)C(=O)O)CC1 (stereo partly specified)
AC50: > 42 µM (inactive)

COc1ccc(C)cc1NC(=O)Cn1c(=O)oc2ccccc21
AC50: > 42 µM (inactive)

CN(c1cccnc1)c1ncnc2[nH]ncc12
AC50: > 42 µM (inactive)

CC1(C)NC(=O)N(CCCOc2ccccc2Br)C1=O
AC50: > 42 µM (inactive)

COc1cccc(-n2c(Cc3cc(=O)[nH]c(=O)[nH]3)nnc2SCc2cccnc2)c1
AC50: > 42 µM (inactive)

O=S(=O)(NCC1CCCN(Cc2ccccc2O)C1)c1cccc2cccnc12 (stereo unspecified)
AC50: > 42 µM (inactive)

O=C(O)CCSc1ccc([N+](=O)[O-])cc1[N+](=O)[O-]
AC50: > 42 µM (inactive)

COc1ccc(C2=NN(C(=S)Nc3ccccc3)C(c3ccccc3)C2)cc1 (stereo unspecified)
AC50: > 42 µM (inactive)

COc1ccc(/C=C/C(=O)N2CCC(C(N)=O)CC2)cc1S(=O)(=O)N1CCOCC1
AC50: > 42 µM (inactive)

Cc1cc(-c2ccc(C(C)C)c(S(=O)(=O)N3CC(=O)Nc4ccccc43)c2)on1
AC50: > 42 µM (inactive)

COc1ccc2c(c1)OC[C@H]1[C@H]2N2C(=O)c3cc(C)ccc3NC(=O)[C@@]2(C)[C@H]1c1ccccc1
AC50: > 42 µM (inactive)

COc1ccc(C(=O)NCCSc2ccc(C)cc2)cc1
AC50: > 42 µM (inactive)

Cc1cc(C(=O)NN)n[nH]1
AC50: > 42 µM (inactive)

N#CCCN(C(=O)COC(=O)c1ccc(S(=O)(=O)Nc2ccccc2)cc1)c1ccccc1
AC50: > 42 µM (inactive)

Cc1cc(Oc2cc(NN3CCCCC3)c([N+](=O)[O-])cc2[N+](=O)[O-])ccc1[N+](=O)[O-]
AC50: > 42 µM (inactive)

COc1ccc(NC(=O)c2ccc(COc3ccccc3OC)o2)cc1OC
AC50: > 42 µM (inactive)

c1ccc(-c2csc(NC3CCCCC3)n2)cc1
AC50: > 42 µM (inactive)

CCNC(=S)NNC(=O)c1ccc(=O)n(Cc2ccccc2)c1
AC50: > 42 µM (inactive)

CCOc1ccccc1C(=O)NCc1ccc2c(c1)OCO2
AC50: > 42 µM (inactive)

CCCCN(C/C=C/c1ccccc1OC)Cc1ccccc1
AC50: > 42 µM (inactive)

Cc1ccc(C)c(C(C)NC(=O)c2ccncc2)c1 (stereo unspecified)
AC50: > 42 µM (inactive)

Cc1c(C(=O)NC(C)C)oc2c1-c1[nH]ncc1CC2
AC50: > 42 µM (inactive)

O=C(COC(=O)c1cc([N+](=O)[O-])ccc1N1CCOCC1)Nc1cccc(F)c1
AC50: > 42 µM (inactive)

COc1ccccc1OCCSc1nc2ccccc2n1CCC(=O)O
AC50: > 42 µM (inactive)

Cc1cc(C)cc(C(=O)Oc2cc(C)[nH]c(=O)c2[N+](=O)[O-])c1
AC50: > 42 µM (inactive)

CCCN1C(=O)c2ccccc2NC1c1ccc(C)cc1 (stereo unspecified)
AC50: > 42 µM (inactive)

C=CSc1sc(Cl)c(N(C)C)c1[N+](=O)[O-]
AC50: > 42 µM (inactive)

O=C(Cc1cccs1)Nc1nnc(-c2ccncc2)s1
AC50: > 42 µM (inactive)

Cc1c(C(=O)OCC(=O)Nc2ccc(S(N)(=O)=O)cc2)oc2c1ccc1ccccc12
AC50: > 42 µM (inactive)

CCCCn1c2c(c(=O)n(C)c1=O)C(c1ccc(OC)cc1)N1CCCCCC1=N2 (stereo unspecified)
AC50: > 42 µM (inactive)

CN(C)c1ccc(/C=C/c2cccc[n+]2[O-])cc1
AC50: > 42 µM (inactive)

CC(NC(=O)c1cnc2n(c1=O)CCS2)c1ccccc1 (stereo unspecified)
AC50: > 42 µM (inactive)

O=C1c2ccccc2NC(c2ccccc2O)N1O (stereo unspecified)
AC50: > 42 µM (inactive)

COc1cc(CN2CCN(c3ncccn3)CC2)cc(OC)c1
AC50: > 42 µM (inactive)

Cc1cc(C)c(OCC(=O)N/N=C/c2ccco2)c(C)c1
AC50: > 42 µM (inactive)

O=C(COC(=O)c1ccc([N+](=O)[O-])s1)c1ccc[nH]1
AC50: > 42 µM (inactive)

Cc1n[nH]c(=O)c2c(NC(=O)COC(=O)Cc3ccc(Cl)cc3Cl)oc(C)c12
AC50: > 21 µM (inactive)

Cc1cc(-c2nnc3sc(C4CCCCC4)nn23)n[nH]1
AC50: > 42 µM (inactive)

O=C1CCC(=O)N1CCOP1(=O)COc2ccccc2OC1
AC50: > 42 µM (inactive)
